Data taken from patent publication US20230047208A1, “RNA Splicing Modulation” (The General Hospital Corporation, priority 2020, published 2023).

Test system: wildtype (WT) human fibroblast cell lines
Test: Transcriptome-wide splicing by RNA sequencing (RNASeq), exon triplet PSI change;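 for Effect: six WT fibroblast lines treated seven days versus DMSO vehicle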;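 for T-PSI: T-PSI is average treated PSI after seven days of treatment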
Format: cell-based
Set-up: key to Effect: Exclusion; Inclusion; Unchanged
Description: FIG. 2A provides a representation of an exon triplet. Exon U is upstream of Exon X, which is upstream of Exon D. R1, R2 and R3 represent RNA sequencing (RNASeq) reads spanning the regions between two adjacent exons. UI1, I1X, XI2 and I2D are four regions flanking the four splice sites of the exon-triplet. Each flanking region consists of 25 exonic base pairs and 75 intronic base pairs.
FIG. 2B provides a volcano plot showing the ψ (PSI: Percent Spliced-In) changes in splicing after treatment with Compound (I). Each dot represents one of the 161,097 expressed exon triplets in human fibroblasts. The x axis represents the ψ changes after treatment and the y axis represents the False Discovery Rate (FDR) (log 10 transformed). […] The horizontal dashed line indicates an FDR of 0.1. The dots on the right side of the right vertical dashed line and above the horizontal dashed line represent the exon-triplets with an increase for Exon X inclusion (Δψ≥0.1 and FDR<0.1) while the dots on left side of the left vertical dashed line and above the horizontal dashed line represent an increase for Exon X exclusion (Δψ≤−0.1 and FDR<0.1). Black dots in-between the two vertical dashed lines represent exon-triplets unchanged from the treatment.
In some aspects, analysis is performed on data derived from the assay to measure the magnitude of splicing to determine the amount of exons spliced into an mRNA transcript that is produced in the presence of Compound (I) relative to the amount in the absence of Compound (I) or presence of a negative control. In a preferred aspect, the method utilized is calculation of change in Percent Spliced In (ΔPSI). […] The ΔPSI value is derived from the formula: […]
The values for “a” and “b” represent the number of reads supporting the probability for potential inclusion or exclusion of an exon in an RNA transcript. The “a” value is derived from the number of reads within an exon triplet covering, in 5′ to 3′ order: the last few bases (>1 nucleotide) of an upstream exon operably linked to the first few bases (>1 nucleotide) of a middle exon. The “b” value is derived from the number of reads within an exon triplet covering, in 5′ to 3′ order: the last few bases (>1 nucleotide) of the middle exon operably linked to the first few bases (>1 nucleotide) of a downstream exon. The number of reads will indicate whether the splice junction of a middle exon has been identified as potentially having a CNN Motif(s) by the CNN Model described herein, wherein the inclusion or exclusion of the middle exon may be modulated in the presence of Compound (I) to produce one or more mature RNA isoforms from the gene transcript. The value for “c” represents the number of reads supporting the exclusion of the middle exon.
The effect on splicing modulation and corresponding splice differences toward exon inclusion or exclusion was determined by counting the RNASeq reads covering two splice junctions of exon triplets (three consecutive exons: Exon U, Exon X, Exon D) and the corresponding intervening introns, then comparing the change in Percent Spliced In (ΔPSI or Δψ) of the middle exon (Exon X) after treatment (as shown in FIG. 2A)^52,53. 934 exon triplets were identified showing differential middle exon inclusion or exclusion in response to Compound (I) treatment. Of these, 254 were exon inclusion events (Δψ≥0.1 and FDR<0.1) and 680 were exon exclusion events (Δψ≤−0.1 and FDR<0.1) (as shown in FIG. 2B). […] The splicing results were evaluated by RT-PCR in independent replicate experiments, confirming all the calculated Δψ values. […]

[1] = NSMCE2 Exon 126168242-126168340

Clc1nc(NCc2ccncc2)c2cc[nH]c2n1 [Compound (I), 2-chloro-N-(pyridin-4-ylmethyl)-7H-pyrrolo[2,3-d]pyrimidin-4-amine]
Effect (NIN Exon 51233025-51233114): Unc
T-PSI (NIN Exon 51233025-51233114): 0.896
ΔPSI (NIN Exon 51233025-51233114): 0.008
Effect (NIPA2 Exon 23027801-23027922): Exc
T-PSI (NIPA2 Exon 23027801-23027922): 0.326
ΔPSI (NIPA2 Exon 23027801-23027922): −0.185
Effect (NIPA2 Exon 23033278-23033413): Exc
T-PSI (NIPA2 Exon 23033278-23033413): 0.608
ΔPSI (NIPA2 Exon 23033278-23033413): −0.163
Effect (NLRC5 Exon 57110731-57110814): Exc
T-PSI (NLRC5 Exon 57110731-57110814): 0.857
ΔPSI (NLRC5 Exon 57110731-57110814): −0.122
Effect (NLRX1 Exon 119043065-119043134): Exc
T-PSI (NLRX1 Exon 119043065-119043134): 0.742
ΔPSI (NLRX1 Exon 119043065-119043134): −0.143
Effect (NPEPPS Exon 45654447-45654526): Inc
T-PSI (NPEPPS Exon 45654447-45654526): 0.172
ΔPSI (NPEPPS Exon 45654447-45654526): 0.135
Effect (NPR2 Exon 35802729-35802800): Exc
T-PSI (NPR2 Exon 35802729-35802800): 0.878
ΔPSI (NPR2 Exon 35802729-35802800): −0.101
Effect (NPRL3 Exon 167300-167374): Exc
T-PSI (NPRL3 Exon 167300-167374): 0.697
ΔPSI (NPRL3 Exon 167300-167374): −0.155
Effect (NPRL3 Exon 174936-175072): Unc
T-PSI (NPRL3 Exon 174936-175072): 0.206
ΔPSI (NPRL3 Exon 174936-175072): 0.006
Effect (NPRL3 Exon 180521-180590): Unc
T-PSI (NPRL3 Exon 180521-180590): 0.858
ΔPSI (NPRL3 Exon 180521-180590): 0.003
Effect (NRG1 Exon 32620736-32620877): Inc
T-PSI (NRG1 Exon 32620736-32620877): 0.510
ΔPSI (NRG1 Exon 32620736-32620877): 0.182
Effect (NSFL1C Exon 1436359-1436364): Exc
T-PSI (NSFL1C Exon 1436359-1436364): 0.345
ΔPSI (NSFL1C Exon 1436359-1436364): −0.153
Effect (NSFL1C Exon 1436359-1436515): Exc
T-PSI (NSFL1C Exon 1436359-1436515): 0.214
ΔPSI (NSFL1C Exon 1436359-1436515): −0.123
Effect [1]: Inc
T-PSI [1]: 0.162
ΔPSI [1]: 0.133
Effect (NSUN4 Exon 46812593-46812747): Exc
T-PSI (NSUN4 Exon 46812593-46812747): 0.817
ΔPSI (NSUN4 Exon 46812593-46812747): −0.124
Effect (NT5C2 Exon 104871502-104871562): Exc
T-PSI (NT5C2 Exon 104871502-104871562): 0.351
ΔPSI (NT5C2 Exon 104871502-104871562): −0.306
Effect (NTMT1 Exon 132394929-132395080): Unc
T-PSI (NTMT1 Exon 132394929-132395080): 0.828
ΔPSI (NTMT1 Exon 132394929-132395080): −0.009
Effect (NTPCR Exon 233091303-233091465): Unc
T-PSI (NTPCR Exon 233091303-233091465): 0.785
ΔPSI (NTPCR Exon 233091303-233091465): 0.009
Effect (NUB1 Exon 151046159-151046326): Exc
T-PSI (NUB1 Exon 151046159-151046326): 0.858
ΔPSI (NUB1 Exon 151046159-151046326): −0.126
Effect (NUBP2 Exon 1836758-1836956): Unc
T-PSI (NUBP2 Exon 1836758-1836956): 0.575
ΔPSI (NUBP2 Exon 1836758-1836956): 0.006
Effect (NUMB Exon 73833605-73833689): Unc
T-PSI (NUMB Exon 73833605-73833689): 0.697
ΔPSI (NUMB Exon 73833605-73833689): −0.003
Effect (NUP43 Exon 150059779-150059914): Exc
T-PSI (NUP43 Exon 150059779-150059914): 0.865
ΔPSI (NUP43 Exon 150059779-150059914): −0.118
Effect (NUP62 Exon 50430951-50431105): Inc
T-PSI (NUP62 Exon 50430951-50431105): 0.787
ΔPSI (NUP62 Exon 50430951-50431105): 0.124
Effect (NUP98 Exon 3707294-3707424): Unc
T-PSI (NUP98 Exon 3707294-3707424): 0.862
ΔPSI (NUP98 Exon 3707294-3707424): −0.009
Effect (NUPL2 Exon 23235458-23235534): Exc
T-PSI (NUPL2 Exon 23235458-23235534): 0.602
ΔPSI (NUPL2 Exon 23235458-23235534): −0.244
Effect (NUTF2 Exon 67881181-67881359): Unc
